Assay: Analgesic activity (Siegmund test, phenyl-p-benzoquinone writhing)
Type: in vivo
Conditions: Mus musculus; oral, mice, 1 hour before i.p. phenyl-p-benzoquinone; writhing counted 5th to 10th minute; read-out: ED50 (dose producing a 50% decrease in the number of writhing movements)
Method: The activity against pain was investigated in mice (20-25 g) according to a protocol derived from the technique described by SIEGMUND (SIEGMUND E.A., R.A., CADMUS & GOLU, J. Pharm. Exp. Ther. 119, […], 1954). The mice, randomized in batches of 12 animals, received the treatment orally (excipient for the controls) 1 hour before the intraperitoneal injection of a 0.02% aqueousalcoholic solution of phenyl-p-benzoquinone (Sigma). The writhing movements are counted between the 5th and 10th minute after injection.
The percentage activity obtained was evaluated for each dose (% decrease in the number of writhing movements in the treated animals relative to the controls). An ED50, the dose producing a 50% activity, was determined for each product.

Q: Which ED50 does the source give for O=c1[nH]c2ccc(Cc3ccccc3)cc2s1 [Example 1, 6-Benzylbenzothiazolinone] here?
A: ~2 mg/kg

Reference: patent US5084469A, “New substituted benzothiazolinones” (Adir et Compagnie, priority 1989, dated 1992)
